1 compound from patent US5324502A, “Radiopharmaceuticals for imaging the heart” (priority 1992, dated 1994) can be followed below.

This data set is described as follows: PET imaging of the heart with the 68Ga complex. The conditions noted are these: dog, 20 mCi bolus i.v.

SMILES strings stand for the structures.

Description: The dog was placed in a plexiglass holder and positioned within the PET VI camera, a positron emission tomograph that permits simultaneous acquisition of seven transverse tomographic slices with a slice-to-slice separation of 1.44 cm, a slice thickness of 1.39 cm, and a reconstructed resolution of 12.0 mm (full width at half maximum). A transmission scan, necessary for attenuation correction, was obtained using an external ring of ^68 Ge/^68 Ga. A ^15 O-myocardial perfusion image was then obtained for reference employing ^15 O-water and ^15 O-carbon monoxide in a standard PET protocol. After decay of the ^15 O activity to background levels, the ^68 Ga-bis(4,6-dimethoxysalicylaldimino)-N,N'-bis(aminopropyl) ethylene-diamine radiopharmaceutical (20 mCi) was administered to the dog as a bolus intravenous injection. Dynamic PET data was collected for ten 1 minute frames commencing at the time of ^68 Ga injection, followed by eight consecutive 10 minute static images. PET images of the chest were reconstructed from each of the ten one minute frames and each of the eight 10 minute frames. […] Regions-of-interest were defined in the ^68 Ga images allowing quantitative determination of regional myocardial tissue concentrations of tracer.

For the compound `COc1cc([O-])c(C=NCCCNCCNCCCN=Cc2c([O-])cc(OC)cc2OC)c(OC)c1.[68Ga+3]` [^68 Ga-bis(4,6-dimethoxysalicylaldimino)-N,N'-bis(aminopropyl)ethylenediamine], the “clearance of myocardial ^68 Ga radioactivity” value (90 minute imaging period) was “No clearance of myocardial ^68 Ga radioactivity was observed”. Also, the “delineation of the heart in ^68 Ga PET images” value (beyond 20 minutes post-injection) was “the heart was clearly delineated in the ^68 Ga-images with good heart-to-blood and heart-to-lung contrast”.
